Assay results as given in publication PMC10866072, “Design, synthesis, molecular modelling and biological evaluation of novel 6-amino-5-cyano-2-thiopyrimidine derivatives as potent anticancer agents against leukemia and apoptotic inducers” (Journal of Enzyme Inhibition and Medicinal Chemistry, 2024).

How the values were obtained:
PC-3 = type: cell-based; settings: one dose 10^-5 M, 48 h
ACHN = type: cell-based; settings: one dose 10^-5 M, 48 h
NCI-H522 = type: cell-based; settings: one dose 10^-5 M, 48 h
NCI-H226 = type: cell-based; settings: one dose 10^-5 M, 48 h
OVCAR-5 = type: cell-based; settings: one dose 10^-5 M, 48 h
NCI-H460 = type: cell-based; settings: one dose 10^-5 M, 48 h
HOP-62 = type: cell-based; settings: one dose 10^-5 M, 48 h
DU-145 = type: cell-based; settings: one dose 10^-5 M, 48 h
UACC-257 = type: cell-based; settings: one dose 10^-5 M, 48 h
SF-295 = type: cell-based; settings: one dose 10^-5 M, 48 h
MDA-MB-435 = type: cell-based; settings: one dose 10^-5 M, 48 h
SK-MEL-5 = type: cell-based; settings: one dose 10^-5 M, 48 h
HOP-92 = type: cell-based; settings: one dose 10^-5 M, 48 h
UO-31 = type: cell-based; settings: one dose 10^-5 M, 48 h
HL-60(TB) = type: cell-based; settings: one dose 10^-5 M, 48 h
HCT-116 = type: cell-based; settings: one dose 10^-5 M, 48 h
SF-539 = type: cell-based; settings: one dose 10^-5 M, 48 h
MOLT-4 = type: cell-based; settings: one dose 10^-5 M, 48 h
MDA-MB-231/ATCC = type: cell-based; settings: one dose 10^-5 M, 48 h
A549/ATCC = type: cell-based; settings: one dose 10^-5 M, 48 h
U251 = type: cell-based; settings: one dose 10^-5 M, 48 h
CAKI-1 = type: cell-based; settings: one dose 10^-5 M, 48 h
CCRF-CEM = type: cell-based; settings: one dose 10^-5 M, 48 h
OVCAR-4 = type: cell-based; settings: one dose 10^-5 M, 48 h
MCF7 = type: cell-based; settings: one dose 10^-5 M, 48 h
RPMI-8226 = type: cell-based; settings: one dose 10^-5 M, 48 h
NCI-H23 = type: cell-based; settings: one dose 10^-5 M, 48 h
T-47D = type: cell-based; settings: one dose 10^-5 M, 48 h
HS 578T = type: cell-based; settings: one dose 10^-5 M, 48 h; HS 578T
MALME-3M = type: cell-based; settings: one dose 10^-5 M, 48 h
A498 = type: cell-based; settings: one dose 10^-5 M, 48 h
SK-OV-3 = type: cell-based; settings: one dose 10^-5 M, 48 h
EKVX = type: cell-based; settings: one dose 10^-5 M, 48 h
SR = type: cell-based; settings: one dose 10^-5 M, 48 h
OVCAR-3 = type: cell-based; settings: one dose 10^-5 M, 48 h
TK-10 = type: cell-based; settings: one dose 10^-5 M, 48 h
SNB-19 = type: cell-based; settings: one dose 10^-5 M, 48 h
M14 = type: cell-based; settings: one dose 10^-5 M, 48 h
MDA-MB-468 = type: cell-based; settings: one dose 10^-5 M, 48 h
786-0 = type: cell-based; settings: one dose 10^-5 M, 48 h
OVCAR-8 = type: cell-based; settings: one dose 10^-5 M, 48 h
RXF 393 = type: cell-based; settings: one dose 10^-5 M, 48 h
HCC-2998 = type: cell-based; settings: one dose 10^-5 M, 48 h
SK-MEL-2 = type: cell-based; settings: one dose 10^-5 M, 48 h
HT29 = type: cell-based; settings: one dose 10^-5 M, 48 h
IGROV1 = type: cell-based; settings: one dose 10^-5 M, 48 h
KM12 = type: cell-based; settings: one dose 10^-5 M, 48 h
SNB-75 = type: cell-based; settings: one dose 10^-5 M, 48 h
HCT-15 = type: cell-based; settings: one dose 10^-5 M, 48 h
K-562 = type: cell-based; settings: one dose 10^-5 M, 48 h
SK-MEL-28 = type: cell-based; settings: one dose 10^-5 M, 48 h
SN12C = type: cell-based, human; settings: one dose 10^-5 M, 48 h
UACC-62 = type: cell-based; settings: one dose 10^-5 M, 48 h
LOX IMVI = type: cell-based; settings: one dose 10^-5 M, 48 h
SW-620 = type: cell-based; settings: one dose 10^-5 M, 48 h
SF-268 = type: cell-based; settings: one dose 10^-5 M, 48 h
[1] = system: full NCI 60 cell lines panel

3-Amino-4–(4-chlorophenyl)-1H-pyrazolo[3,4-d] pyrimidine-6-thiol [Compound 3b]
% growth (PC-3): 101.93% | % growth (ACHN): 102.63% | % growth (NCI-H522): 84.30% | % growth (NCI-H226): 107.48% | % growth (OVCAR-5): 108.35% | % growth (NCI-H460): 107.05% | % growth (HOP-62): 106.23% | % growth (DU-145): 101.49% | % growth (UACC-257): 106.44% | % growth (SF-295): 89.90% | % growth (MDA-MB-435): 98.24% | % growth (SK-MEL-5): 95.82% | % growth (HOP-92): 100.46% | % growth (UO-31): 92.69% | % growth (HL-60(TB)): 82.04% | % growth (HCT-116): 102.04% | % growth (SF-539): 98.83% | % growth (MOLT-4): 92.74% | % growth (MDA-MB-231/ATCC): 98.65% | % growth (A549/ATCC): 100.87% | % growth (U251): 101.98% | % growth (CAKI-1): 93.47% | % growth (CCRF-CEM): 92.49% | % growth (OVCAR-4): 98.54% | % growth (MCF7): 94.30% | % growth (RPMI-8226): 90.84% | % growth (NCI-H23): 103.30% | % growth (T-47D): 86.49% | % growth (HS 578T): 111.10% | % growth (MALME-3M): 100.39% | % growth (A498): 109.21% | % growth (SK-OV-3): 106.45% | % growth (EKVX): 96.85% | % growth (SR): 91.21% | % growth (OVCAR-3): 113.31% | % growth (TK-10): 114.88% | % growth (SNB-19): 92.80% | % growth (M14): 107.99% | % growth (MDA-MB-468): 106.46% | % growth (786-0): 99.34% | % growth (OVCAR-8): 104.96% | % growth (RXF 393): 103.75% | % growth (HCC-2998): 100.20% | % growth (SK-MEL-2): 108.20% | % growth (HT29): 95.28% | % growth (IGROV1): 96.70% | % growth (KM12): 100.80% | % growth (SNB-75): 94.54% | % growth (HCT-15): 103.06% | % growth (K-562): 94.65% | % growth (SK-MEL-28): 107.34% | % growth (SN12C): 97.55% | % growth (UACC-62): 100.93% | % growth (LOX IMVI): 103.05% | % growth (SW-620): 102.78% | % growth (SF-268): 103.53% | activity on all 60 cancer cell lines tested (in words) ([1]; one dose): weak activity | Mean % growth ([1]; one dose 10^-5 M, 48 h, mean over all cell lines): 100.23%
